Consider 13 compounds from publication PMC8103899, “Allyl Isothiocyanate: A TAS2R38 Receptor-Dependent Immune Modulator at the Interface Between Personalized Medicine and Nutrition” (Frontiers in Immunology, 2021).

A short description of series [1]: Human food intervention: AITC metabolite plasma levels after mustard intake (LC-ESI-MS/MS). Type of series: in vivo. The settings on record: for blood plasma level: human volunteers; for detection in plasma: human volunteers after mustard preparation (data not shown). The procedure: AITC metabolite quantification was carried out in blood plasma samples derived from an intervention study at the University Medical Center in Freiburg, Germany. Samples were from 4 healthy young adults (3 females, 1 male, aged between 30-40 years) having a normal BMI, and were non-smokers. Each subject consumed one time 10 g of a commercially available mustard preparation ([…] Munich, Germany) containing 24.74 ± 1.76 μmol/g fresh weight preformed AITC on an empty stomach with optional consumption of white bread. The intervention was preceded by a 48 h wash-out phase consisting of a glucosinolate/ITC-free diet. After 30 min and optionally 60 min, blood was collected by venipuncture in serum tubes and centrifuged at 2000g for 10 min, 4°C to obtain serum. Subsequently, TFA was added and the samples frozen at -80°C. The preparation of serum samples (300 μL serum and 100 μL TFA) was conducted as described by Kühn et al. ([37]). The frozen samples were thawed, vortexed (1 min) and centrifuged (4 °C, 10 min, 20.854 x g). The supernatant was transferred to SPE cartridges. Prior to transferring, SPE cartridges were conditioned with acetonitrile (ACN, 3 mL) and equilibrated with water (3 mL). After sample application, the cartridges were washed with formic acid (FA, 3 mL, 0.1% in water) and the metabolites were eluted with FA (3 mL, 0.1% in ACN:water, 90:10, v/v). […] The samples were re-dissolved in 100 μL FA (0.1% in ACN:water, 90:10, v/v). Sample aliquots of 5 μL were injected into the LC-ESI-MS/MS system. LC-ESI-MS/MS analysis was performed on an API4000 triple quadrupole mass spectrometer (AB Sciex Germany GmbH, Darmstadt, Germany) equipped with an Agilent 1200 LC system (Agilent Technologies Deutschland GmbH & Co. KG, Waldbronn, Germany). For data acquisition and processing the software Analyst 1.6.1 (AB Sciex Germany GmbH, Darmstadt, Germany) was used. […] AITC-CysGly; AITC-Cys; AITC-NAC) was conducted according to Platz et al. ([38]) with minor modifications. The separation was performed on a Kinetex C18 column (Phenomenex, 5 μm, 100 Å, 150 x 2.1 mm). The autosampler operated at 4°C and the set temperature for the oven was 20°C. A constant flow of 300 μL/min was used for the mobile phase which consisted of 0.1% FA in water (A) and 0.1% FA in ACN (B). […] In order to equilibrate the column, A was increased to 90% and held for 5 min. The relevant MS parameters include an entrance potential of -10 V, a desolvation gas temperature of 450°C, ion spray potential of -4.5 kV, gas 1 and gas 2 at 46 psi and a curtain gas pressure at 10 psi.

The subject of series [2] is sinonasal epithelial cells. The arrangement: method as in PMID 24531552. The settings on record: cited from earlier work.
Series [3] concerns LPS stimulated leukocytes. The conditions noted are these: cited from earlier work.
The next series has as its system TRPA1. The arrangement: method as in PMID 21763756. The settings on record: calcium assays; cited from earlier work.
The target of a further series is TRPV1 (Homo sapiens, UniProt Q8NER1). Put plainly: Calcium flux in PAV/PAV monocytes after TRPV1 antagonist pre-treatment before AITC. It is filed as cell-based. Here is the method:
Baseline fluorescence was recorded for 60 sec.

Another series relates to TAS2R38-PAV receptor. The arrangement: method as in PMID 20022913. The conditions noted are these: cited from earlier work.
A further series has as its target PLC-β2 (Homo sapiens, UniProt Q00722). Put plainly: Calcium flux in PAV/PAV monocytes after PLC-β2 antagonist pre-treatment before AITC. The settings on record: cell pretreatment with U73122 for 30 min.
Another series relates to TAS2R38. On the set-up: method as in PMID 23041624. The settings on record: sinonasal cells, TAS2R38 genotype dependent; cited from earlier work.
The test system of series [4] is extracellular calcium influx in monocytes. Put plainly: Calcium flux in PAV/PAV monocytes after EDTA pre-treatment before AITC. The conditions noted are these: 0.5 mM EDTA. (In general: A change in cytosolic calcium serves as a functional read-out for many receptors and channels.)
Experimental: (§1) PBMC staining for calcium measurement was performed as described before ([10]). Each sample containing 0.5 x10^6 cells was analyzed for 800 sec using a FACSCalibur™ (BD Biosciences, Heidelberg, Germany) flow cytometer. After 60 sec, cells were exposed to the test compounds and then measured for another 740 sec. Data were analyzed using FlowJo software (Ashland, Oregon, USA).
(§2) FACS based measurement of calcium flux was then detected in the monocyte subpopulation probed with Fluor-4 AM (FEM:516 nm). Baseline fluorescence was recorded for 60 sec. After compound exposure, fluorescence was measured for another 740 sec. Calcium response was calculated as the ratio of the maximum peak post stimulation to basal level using FlowJo software. Dots represent mean values ± SD, n ≥ 3. Significance of difference was determined using the paired t-test compared to the respective solvent control (SC, 0.1% DMSO), *p < 0.05, **p < 0.01.
The next series relates to TAS2R38-PAV. The arrangement: method as in PMID 28902853. The settings on record: transfected HEK293 cells (~0.9% DMSO solution), approximately; cited from earlier work.
Series [5] deals with intracellular calcium release. The arrangement: method as in PMID 8393876. The settings on record: 1% DMSO; cited from earlier work.
The next series addresses T1, TAS2R38 receptor (Homo sapiens, UniProt P59533, A49P/I296V).
T1 sequence (P59533 1-333 A49P/I296V): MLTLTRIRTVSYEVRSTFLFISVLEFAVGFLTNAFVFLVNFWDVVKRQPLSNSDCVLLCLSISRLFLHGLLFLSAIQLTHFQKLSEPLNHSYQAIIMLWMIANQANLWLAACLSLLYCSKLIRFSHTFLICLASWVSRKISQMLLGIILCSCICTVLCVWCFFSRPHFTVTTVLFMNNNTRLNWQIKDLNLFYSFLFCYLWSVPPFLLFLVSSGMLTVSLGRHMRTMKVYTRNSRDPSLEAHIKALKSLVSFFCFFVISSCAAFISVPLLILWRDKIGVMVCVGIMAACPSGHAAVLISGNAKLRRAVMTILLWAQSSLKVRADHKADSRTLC
Put plainly: Calcium flux assay in human PBMC (flow cytometry, Fluo-4 AM). The conditions noted are these: human PAV/PAV monocytes.

Chain of TRPV1 (Q8NER1 whole entry): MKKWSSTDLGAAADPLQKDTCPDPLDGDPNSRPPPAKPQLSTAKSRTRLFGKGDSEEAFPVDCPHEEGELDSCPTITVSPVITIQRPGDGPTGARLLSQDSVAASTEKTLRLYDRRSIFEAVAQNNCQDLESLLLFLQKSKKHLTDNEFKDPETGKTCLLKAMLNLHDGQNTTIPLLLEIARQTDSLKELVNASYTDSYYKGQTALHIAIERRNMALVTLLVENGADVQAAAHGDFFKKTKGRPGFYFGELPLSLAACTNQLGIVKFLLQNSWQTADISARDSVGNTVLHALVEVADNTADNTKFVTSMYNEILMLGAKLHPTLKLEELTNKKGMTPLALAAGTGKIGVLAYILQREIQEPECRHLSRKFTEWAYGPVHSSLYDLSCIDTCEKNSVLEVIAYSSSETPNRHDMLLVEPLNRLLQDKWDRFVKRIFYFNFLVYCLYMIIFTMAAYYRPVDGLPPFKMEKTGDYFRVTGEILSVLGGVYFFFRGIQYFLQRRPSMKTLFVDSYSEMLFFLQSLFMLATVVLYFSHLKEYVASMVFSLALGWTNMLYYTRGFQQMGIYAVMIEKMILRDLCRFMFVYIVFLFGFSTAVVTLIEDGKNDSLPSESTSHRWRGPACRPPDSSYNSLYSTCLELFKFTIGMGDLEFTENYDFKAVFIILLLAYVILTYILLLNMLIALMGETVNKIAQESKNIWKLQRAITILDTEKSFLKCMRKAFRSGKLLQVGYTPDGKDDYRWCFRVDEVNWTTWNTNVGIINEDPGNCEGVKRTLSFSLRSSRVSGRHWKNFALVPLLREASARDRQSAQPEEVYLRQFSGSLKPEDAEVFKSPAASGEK
Chain of PLC-β2 (Q00722 whole entry): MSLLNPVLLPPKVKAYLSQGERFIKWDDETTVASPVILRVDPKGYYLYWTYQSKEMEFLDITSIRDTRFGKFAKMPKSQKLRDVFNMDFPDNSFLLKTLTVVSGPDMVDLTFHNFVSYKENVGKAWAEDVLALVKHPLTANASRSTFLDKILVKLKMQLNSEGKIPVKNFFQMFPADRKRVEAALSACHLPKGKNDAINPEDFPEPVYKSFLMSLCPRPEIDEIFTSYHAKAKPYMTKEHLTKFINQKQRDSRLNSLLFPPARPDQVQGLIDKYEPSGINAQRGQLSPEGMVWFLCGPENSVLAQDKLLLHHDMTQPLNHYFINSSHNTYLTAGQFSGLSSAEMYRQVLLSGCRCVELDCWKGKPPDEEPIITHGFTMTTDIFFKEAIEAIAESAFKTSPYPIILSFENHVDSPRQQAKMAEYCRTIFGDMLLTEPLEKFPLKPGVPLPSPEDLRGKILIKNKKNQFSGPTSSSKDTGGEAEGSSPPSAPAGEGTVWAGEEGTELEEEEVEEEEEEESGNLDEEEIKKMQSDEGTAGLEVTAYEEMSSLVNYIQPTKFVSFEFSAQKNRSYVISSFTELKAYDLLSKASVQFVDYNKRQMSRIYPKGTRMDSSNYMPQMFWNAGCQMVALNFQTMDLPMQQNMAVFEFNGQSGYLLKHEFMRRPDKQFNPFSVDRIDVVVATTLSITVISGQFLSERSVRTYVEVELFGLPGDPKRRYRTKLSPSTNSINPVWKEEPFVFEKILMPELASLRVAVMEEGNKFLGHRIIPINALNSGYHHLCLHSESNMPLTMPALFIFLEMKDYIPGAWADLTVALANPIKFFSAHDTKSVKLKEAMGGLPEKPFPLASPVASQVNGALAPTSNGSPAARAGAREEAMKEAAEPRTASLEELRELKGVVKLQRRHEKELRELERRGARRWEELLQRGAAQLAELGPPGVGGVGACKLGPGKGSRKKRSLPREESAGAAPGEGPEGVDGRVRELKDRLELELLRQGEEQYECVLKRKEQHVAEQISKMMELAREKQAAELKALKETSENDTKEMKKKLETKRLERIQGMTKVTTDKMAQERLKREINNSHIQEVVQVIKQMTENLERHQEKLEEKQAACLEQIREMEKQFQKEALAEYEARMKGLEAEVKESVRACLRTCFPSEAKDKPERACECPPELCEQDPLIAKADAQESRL
Experimental for PLC-β2: as §1, §2
Experimental for TAS2R38 receptor: as §1
Flow cytometry based measurement of calcium flux was detected in monocytes (A–C) and lymphocytes (D–E) probed with Fluor-4 AM (FEM:516 nm) after treatment with compounds. Baseline fluorescence was recorded for 60 sec before exposure. After exposure, fluorescence was measured for another 740 sec. Calcium response was calculated as the ratio of the maximum peak post stimulation to basal level using FlowJo software. Dots represent mean values ± SD, n ≥ 4 of cells from AVI/AVI (A, D), PAV/AVI (B, E) and PAV/PAV (C, F) subjects. […] Significance of difference was determined using paired t-test compared to the respective SC, *p < 0.05, **p < 0.01.
as §2

As to `C=CCNC(=S)SC[C@H](NC(C)=O)C(=O)O` [AITC-NAC], the blood plasma level in series [1] (0.5 h after 10 g mustard preparation) was determined as 836.7 ± 67.7 nM; in [1] (1 h after 10 g mustard preparation) it was 1001.0 ± 228.3 nM.

In the case of `CC[N+](CC)(CC(=O)Nc1c(C)cccc1C)Cc1ccccc1` [denatonium], the cytokine release result in series [2] is listed as “marginal change”. For the same compound, the “multiple cytokine production, including TNF-α” value in [3] is “marked reduction”.

Broadly, the IC50 is the concentration that gives 50% inhibition. Regarding `CCC(=N\O)/C(C)=C/c1ccc(F)cc1` [A-967079], the IC50 in the series on TRPA1 was […]. Turning to `Oc1cc2c(cc1O)CN(C(=S)NCCc1ccc(Cl)cc1)CCC2` [capsazepine], the “effect on AITC mediated calcium release” value on TRPV1 (capsazepine pretreatment, 1 µM AITC) is “not effected”; on TRPV1 (pretreatment 10 µM capsazepine, stimulation with 100 µM AITC) it was “reduction of AITC mediated calcium release”. As to `S=C=NCCc1ccccc1` [phenylethyl ITC], the “activation of the TAS2R38-PAV receptor” value in the series with TAS2R38-PAV receptor is “activated”. As to `C=CCNC(=S)SC[C@H](NC(=O)CC[C@H](N)C(=O)O)C(=O)NCC(=O)O` [AITC-GSH], the detection in plasma result in series [1] is listed as “No other AITC metabolites (AITC-GSH or AITC-CG) could be detected”. Consider `COc1ccc2c(c1)CC[C@@H]1[C@@H]2CC[C@]2(C)[C@@H](NCCCCCCN3C(=O)C=CC3=O)CC[C@@H]12` [U73122], for which, on PLC-β2, the “effect on AITC induced calcium release” value is on record as “almost completely block”. For the compound `C=CCNC(=S)SC[C@H](N)C(=O)NCC(=O)O` [AITC-CG], the detection in plasma entry in series [1] is on record as “No other AITC metabolites (AITC-GSH or AITC-CG) could be detected”. For the compound `C[S@@+]([O-])CCCCN=C=S` [L-sulforaphane], in the series with TAS2R38-PAV receptor, the “activation of the TAS2R38-PAV receptor” value is “did not”. With `C=CCC(=NOS(=O)(=O)O)S[C@@H]1O[C@H](CO)[C@@H](O)[C@H](O)[C@H]1O` (stereo in doubt) [sinigrin], the “activation of TAS2R38 taster variant among 25 TAS2Rs” value in the series on TAS2R38-PAV receptor (HEK293T-Gα16gust44 cells transiently transfected) is “selectively triggered the taster variant”. `NC(=S)Nc1ccccc1` [PTC]: in the series with TAS2R38, the NO production entry is listed as “stimulated”. `O=C(O)CN(CCN(CC(=O)O)CC(=O)O)CC(=O)O` [EDTA]: the “effect on calcium influx triggered by AITC” value in series [4] (1 µM AITC) is “did not impact”. Further, in series [4] (100 µM AITC), the “reduction in calcium flux” value turned out to be 67%. On to `C[S+](C)[O-]` [DMSO, Dimethyl sulfoxide], for which, in the series with TAS2R38-PAV, the threshold concentration was greater than 125 mM. The calcium release result in [5] is on record as “significant calcium release”. For the same compound, the “effect on calcium release” value at TAS2R38 receptor (0.1% DMSO) is given as “no effect”. Besides, the “mean calcium increase compared to untreated cells” value at TAS2R38 receptor (starting from 1.5% DMSO, not statistically significant) came out at 36%.
